Patent US9937240B2, “Peptide having fibrosis inhibitory activity and composition containing same” (GemVax & KAEL Co., Ltd., priority 2014, dated 2018)

How the values were obtained:
[1] = system: fibronectin (FN); assay: TGF-β inhibition in HepG2 cell lines, qRT-PCR of fibronectin mRNA; type: cell-based, human; settings: HepG2, TGF-β1 treated; positive control
Method: (§1) To verify the TGF-β inhibitory effect of PEP1, which is considered as the main cause of fibrosis, an experiment for confirming a TGF-β signaling inhibiting action in HepG2 cell lines was performed as follows.
(§2) Reagents and materials used in the experiment are as follows. After powdery PEP1 was dissolved in 0.2 μm filtered sterile water, aliquots were stored at −70° C. and then dissolved before use. As a cell line, HepG2 (ATCC HB-8065; American Type Culture Collection) was used, and recombinant human TGF-β1 was dissolved in 4 mM HCl, thereby preparing a 10 μg/mL stock. SB431542 (Sigma) used as a positive control was prepared in a 10 mM stock.
(§3) 2×10^6 HepG2 cells (ATCC HB-8065) were seeded into a 60 mm petri-dish and cultured in a CO2 incubator for 16 hours. Afterward, media were transferred to serum-free media (SFM), and then the cells were further cultured for 24 hours. […]
(§4) RNA was extracted from peptide-treated cells using an RNEASY® Plus Mini Kit (Qiagen) (RNA extraction kit) according to the manufacture's protocol. The extracted RNA was quantified, and then cDNA was synthesized from 1 μg of total RNA using a reverse transcription system (Promega). […] As TGF-β-related biomarkers, mRNA expression of fibronectin (FN), Smad2 and Smad4 were analyzed, and as a reference gene, GAPDH was used. […]

[2] = system: AsPC1 cells; assay: AsPC1 cell xenograft model: fibrosis, cancer cells and mouse weight; type: in vivo, nude mice; settings: for fibrosis (collagen parts stained in blue color in cancer tissue): administration starting 10 days after inoculation, PEP1 2 mg/kg once a day s.c.
Method: To verify in vivo anticancer effects of PEP1 and gemcitabine on pancreatic cancer, xenograft experiments were performed using AsPC1 cell lines. A xenografting method used herein is as follows.
Reagents and materials used for the experiment are as follows. After powdery PEP1 was dissolved in 0.2 μm filtered sterile water, aliquots were stored at −70° C. and then dissolved before use, and gemcitabine was dissolved in 100% saline. 5-fluorouracil was dissolved in DMSO.
AsPC1 cell lines (Cell #6×10^5 cells/[…]), which were cell lines used in the experiment, are human pancreatic cancer metastatic cells purchased from the American Type Cell Culture (ATCC, Rockville, Md.).
AsPC1 cells were injected into each of nude mouse experiment groups (1) to (4).
The cultured 5×10^6 AsPC1 cells were subcutaneously injected into nude mice (BALB/c-nu/nu nude mice, purchased from Joongang Laboratory animal, Seoul, Korea). The injection was performed until cancer was grown to a size of 100 mm^3 (about 10 days). Following cancer engraftment, the mice were divided into groups, each group having a similar average weight, and then either or both of gemcitabine and Pep1 were subcutaneously and intraperitoneally injected into the mice according to the conditions for each of the four experiment groups below (refer to FIG. 1). Cancer volume was measured with calipers and calculated by the following formula [width^2×length×0.52].
After grafting, either or both of Pep1 and gemcitabine were administered to each of the four experiment groups.
(1) AsPC1 grafting control
(2) AsPC1 grafting+PEP1 2 mg/kg (once a day, s.c) administered group
After then, weight of each mouse was quantified every time. Also, cancer tissue sample preparation and cell proliferation marker (PCNA)/apoptosis marker (TUNEL) staining were performed.
For analyses of experiment results, averages between several experiment groups was assessed by a student's t-test.

[3] = system: Smad2; assay: TGF-β inhibition in HepG2 cell lines, qRT-PCR of Smad2 mRNA; type: cell-based, human; settings: HepG2, 10 ng/ml TGF-β1; PEP1 1, 5 and 10 μM; 48-hour culture; reference gene GAPDH
Method: as §1, §2, §3, §4

[4] = system: Smad4; assay: TGF-β inhibition in HepG2 cell lines, qRT-PCR of Smad4 mRNA; type: cell-based, human; settings: HepG2, 10 ng/ml TGF-β1; PEP1 1, 5 and 10 μM; 48-hour culture; reference gene GAPDH
Method: as §1, §2, §3, §4

[5] = system: Normal human epidermal keratinocytes (NHEKs); assay: Cell differentiation of radiation-exposed NHEK cell lines; type: cell-based; settings: 1 mM of PEP1, 6 Gy ionizing radiation, cultured 10 days
Method: To confirm PEP1 effects on fibrosis induced by radiation exposure for anticancer treatment and other tumor treatments, an experiment for confirming a TGF-β inhibitory effect of PEP1 in radiation-exposed NHEKs was performed.
(§5) PEP1 synthesized according to Example 1 and a placebo (sham) as a control were prepared. Normal human epidermal keratinocytes (NHEKs) were cultured in a monolayer to be used for a radiation exposure experiment. For the radiation exposure experiment, ionized radiation was used at an intensity of 6 Gy.
To examine the cell differentiation of NHEK cell lines according to radiation exposure, NHEKs were treated with each of the placebo and 1 mM of PEP1, and then divided into radiation-exposed groups and non-exposed groups, followed by culturing for 10 days (refer to FIG. 13).

[6] = system: GRHL2; assay: Biomarker expression in radiation-exposed NHEKs: GRHL2; type: cell-based, human; settings: 1 mM of PEP1, 10 days after radiation exposure (6 Gy)
Method: as §5
(§6) Also, to examine the change in expression levels of biomarkers for the NHEK cell lines due to the radiation exposure, the NHEKs were treated with each of the placebo and 1 mM of PEP1 and divided into non-exposed groups (−) and radiation-exposed groups (+), and then expression levels of the biomarkers were examined at day 1 and day 10 after the radiation exposure (refer to FIG. 14). In measurement of the expression levels of the biomarkers, GAPDH was used as a reference control.
(§7) Western blotting procedures were as follows. Peptide-treated cells were washed with PBS twice, collected into a 1.5 mL centrifuge tube using a cell scraper, followed by centrifugation (1,000 rpm, 4° C., 2 minutes). After removal of the obtained supernatant, 100 μL of RIPA buffer was added to the NHEKs. […]
(§8) […] of protein was transferred to a PVDF membrane (Millipore) by 8% sodium dodecyl sulfate-polyacrylamide gel electrophoresis (SDS-PAGE). […] Afterward, ECL detection (Amersham Pharmacia Biotech) was performed, and obtained images were analyzed using an image analyzer (GE Healthcare, IMAGEQUANT™ LAS 4000).

[7] = system: p63; assay: Biomarker expression in radiation-exposed NHEKs: p63; type: cell-based, human; settings: 1 mM of PEP1, 10 days after radiation exposure (6 Gy)
Method: as §5, §6, §7, §8

[8] = system: N-Cad; assay: Biomarker expression in radiation-exposed NHEKs: N-Cad; type: cell-based, human; settings: 1 mM of PEP1, after radiation exposure (6 Gy)
Method: as §5, §6, §7, §8

[9] = system: P-Akt; assay: Biomarker expression in radiation-exposed NHEKs: P-Akt; type: cell-based, human; settings: 1 mM of PEP1, after radiation exposure (6 Gy)
Method: as §5, §6, §7, §8

[10] = system: NHEK cell lines; assay: In vitro radiation-induced premature senescence (RIPS) marker expression in NHEKs; type: cell-based, human; settings: radiation 0 to 10 Gy, qRT-PCR, western blotting, immunofluorescence staining
Method: (§9) PEP1 synthesized according to Example 1 and a placebo (sham) used as a control were prepared. NHEKs were cultured in a monolayer to prepare an in vitro radiation exposure experiment. For in vitro, in situ, and in vivo radiation exposure experiments, ionized radiation was used at various intensities ranging from 0 to 10 Gy (0, 2, 4, 6, 8, and 10 Gy).
The expression level of each marker was measured using qRT-PCR, western blotting, and immunofluorescence staining. For the measurement of the levels, senescence-associated β-galactosidase (SA β-Gal), p16INK4A, p-p53Ser15, p-ATM, γ-H2AX, 53BP1,H3K9me3, HP1γ, and HMGA2 were used as markers.

[11] = system: oral mucositis model; assay: In vivo oral mucositis model, radiation-induced tongue ulcer; settings: C3H mice, PEP1 1 mg/kg intraperitoneally, 6 Gy IR for five consecutive days
Method: as §9
(§10) Meanwhile, experimental animals were divided into two animal models. The first model was an oral mucositis model, which was prepared by inducing an ulcer to the tongue of each C3H mouse by exposing the head and the neck to radiation (6 Gy, IR) for 5 straight days. The second model is a dermal fibrosis model, which was prepared by inducing local scleroderma by subcutaneously injecting 0.1 cc of a dilution of bleomycin which was known as the cause of pulmonary fibrosis in a 0.9% NaCl aqueous solution at a concentration of 0.5 mg/ml once a day for 24 to 28 days.
For the in vivo experiment, first, in the first oral mucositis model, C3H mice were divided into groups, each intraperitoneally treated with a placebo or PEP1 to give a final dose of 1 mg/kg and exposed to radiation (6 Gy, IR) for five consecutive days to induce a tongue ulcer corresponding to an oral mucositis. Ten days later, the mice were sacrificed to collect tongue tissue, which was stained with toluidine blue and by H&E staining, to perform biopsy. […]

[12] = system: dermal fibrosis model; assay: In vivo dermal fibrosis model, bleomycin-induced scleroderma; settings: C3H mice, PEP1 50 mg/kg intraperitoneally, bleomycin subcutaneously for 24 to 28 days
Method: as §10, with “28 days. Meanwhile, in the second dermal fibrosis model, C3H mice were divided into groups, each intraperitoneally treated with a placebo or PEP1 to give the final dose of 50 mg/kg, and subcutaneously treated with bleomycin at the concentrations mentioned in the preparation of the experimental animals for 24 to 28 days. 28 days later, the mice were sacrificed to detect scleroderma, followed by an experiment for examining fibrosis diffusion using Masson's trichrome staining.” for “28 days.”

[13] = nude mice inoculated with AsPC1 cells, gemcitabine 125 mg/kg once every third day i.p.

NC(=O)c1ccc(-c2nc(-c3ccc4c(c3)OCO4)c(-c3ccccn3)[nH]2)cc1 [SB431542]
fibronectin inhibition ratio [1]: 60.7%

Nc1ccn([C@@H]2O[C@H](CO)[C@@H](O)C2(F)F)c(=O)n1 [gemcitabine]
weight of a mouse ([2]; day 20 after the administration, compared between the four experiment groups): the smallest | fibrosis (collagen parts stained in blue color in cancer tissue) [2, 13]: fibrosis was considerably developed | cancer cells (parts stained in red color) [2, 13]: cancer cells were killed

EARPALLTSRLRFIPK (listed as Homo sapiens) [PEP1, telomerase-derived peptide, which consists of 16 amino acids; position [611-626] on telomerase]
fibrosis (collagen parts stained in blue color in cancer tissue) [2, 13]: fibrosis was considerably inhibited | Smad2 mRNA expression [3]: concentration-dependently inhibited | Smad4 mRNA expression [4]: concentration-dependently inhibited | cell differentiation (fibrosis development) after radiation exposure [5]: hardly showed differentiation | GRHL2 expression level [6]: increased | p63 expression level [7]: increased | N-Cad expression level [8]: decreased | P-Akt expression level (degree of cell survival) [9]: increased | radiation-induced premature senescence (RIPS), indicated by marker expression [10]: RIPS inhibitory effect | defensive effect against exposure to radiation, indicated by biopsy [11]: defensive effects | defensive effect against induction of tissue fibrosis, indicated by biopsy [12]: defensive effects
